Assay results as given in the NIST ThermoML archive (doi:10.1016/j.fluid.2015.03.040).
± gives the expanded uncertainty stated by the source. Blank lines part the entries; values can stand above or below the molecule they belong to.

What was measured:
[1] = 101 kPa, Liquid mixture 1, Drop volume
[2] = 298.15 K; for surface tension liquid-gas: Maximal bubble pressure; for mass density: 101.33 kPa, Liquid, Vibrating tube method
[3] = refractive index (Na D-line) (dimensionless); settings: 298.15 K; 101.33 kPa; Liquid; Standard Abbe refractometry

interfacial tension ([1]; 278.15 K): 4.64 ± 0.07 mN/m
interfacial tension ([1]; 288.15 K): 5.19 ± 0.07 mN/m
interfacial tension ([1]; 298.15 K): 5.78 ± 0.07 mN/m
interfacial tension ([1]; 308.15 K): 6.35 ± 0.08 mN/m
interfacial tension ([1]; 318.15 K): 6.75 ± 0.08 mN/m
interfacial tension ([1]; 328.15 K): 7.28 ± 0.08 mN/m
interfacial tension ([1]; 338.15 K): 7.45 ± 0.08 mN/m
SMILES: C1CCOCC1 [tetrahydropyran] + O

surface tension liquid-gas [2]: 24.7 ± 0.2 mN/m
mass density [2]: 810.89 ± 0.12 kg/m3
refractive index [3]: 1.40941 ± 0.00032
SMILES: CCCCCO [pentan-1-ol]

surface tension liquid-gas [2]: 28 ± 0.21 mN/m
mass density [2]: 879.44 ± 0.09 kg/m3
refractive index [3]: 1.42004 ± 0.00031
SMILES: C1CCOCC1 [tetrahydropyran]

interfacial tension ([1]; 278.15 K): 3.96 ± 0.07 mN/m
interfacial tension ([1]; 288.15 K): 4.24 ± 0.07 mN/m
interfacial tension ([1]; 298.15 K): 4.35 ± 0.07 mN/m
interfacial tension ([1]; 308.15 K): 4.5 ± 0.07 mN/m
interfacial tension ([1]; 318.15 K): 4.51 ± 0.07 mN/m
interfacial tension ([1]; 328.15 K): 4.43 ± 0.07 mN/m
interfacial tension ([1]; 338.15 K): 4.37 ± 0.07 mN/m
interfacial tension ([1]; 348.15 K): 4.21 ± 0.07 mN/m
interfacial tension ([1]; 358.15 K): 3.94 ± 0.07 mN/m
SMILES: CCCCCO [pentan-1-ol] + O

interfacial tension ([1]; 278.15 K): 6.99 ± 0.08 mN/m
interfacial tension ([1]; 288.15 K): 7.53 ± 0.08 mN/m
interfacial tension ([1]; 298.15 K): 7.97 ± 0.08 mN/m
interfacial tension ([1]; 308.15 K): 8.41 ± 0.09 mN/m
interfacial tension ([1]; 318.15 K): 8.62 ± 0.09 mN/m
interfacial tension ([1]; 328.15 K): 8.67 ± 0.09 mN/m
interfacial tension ([1]; 338.15 K): 8.81 ± 0.09 mN/m
SMILES: CCCCCCCCO [octan-1-ol] + O

surface tension liquid-gas [2]: 71.94 ± 0.41 mN/m
mass density [2]: 996.7 ± 0.04 kg/m3
refractive index [3]: 1.33374 ± 0.00031
SMILES: O [water]

surface tension liquid-gas [2]: 28 ± 0.2 mN/m
mass density [2]: 822.25 ± 0.11 kg/m3
refractive index [3]: 1.42884 ± 0.00031
SMILES: CCCCCCCCO [octan-1-ol]

Second part, the molecule before the results:

SMILES: CC(C)OC(C)C [diisopropyl ether]
surface tension liquid-gas [2]: 16.9 ± 0.16 mN/m
mass density [2]: 718.89 ± 0.15 kg/m3
refractive index [3]: 1.3665 ± 0.00031

SMILES: CCCCCCO [hexan-1-ol] + O
interfacial tension ([1]; 278.15 K): 5.77 ± 0.07 mN/m
interfacial tension ([1]; 288.15 K): 6.06 ± 0.07 mN/m
interfacial tension ([1]; 298.15 K): 6.29 ± 0.08 mN/m
interfacial tension ([1]; 308.15 K): 6.16 ± 0.08 mN/m
interfacial tension ([1]; 318.15 K): 6.18 ± 0.08 mN/m
interfacial tension ([1]; 328.15 K): 6.29 ± 0.08 mN/m
interfacial tension ([1]; 338.15 K): 6.14 ± 0.08 mN/m
interfacial tension ([1]; 348.15 K): 6 ± 0.07 mN/m

SMILES: CCCCCCCO [heptan-1-ol]
surface tension liquid-gas [2]: 27.4 ± 0.21 mN/m
mass density [2]: 818.93 ± 0.11 kg/m3
refractive index [3]: 1.42384 ± 0.00031

SMILES: CC(C)OC(C)C [diisopropyl ether] + O
interfacial tension ([1]; 278.15 K): 15.2 ± 0.12 mN/m
interfacial tension ([1]; 288.15 K): 16.3 ± 0.12 mN/m
interfacial tension ([1]; 298.15 K): 17.7 ± 0.13 mN/m
interfacial tension ([1]; 308.15 K): 18.7 ± 0.13 mN/m
interfacial tension ([1]; 318.15 K): 19.7 ± 0.14 mN/m
interfacial tension ([1]; 328.15 K): 21.1 ± 0.15 mN/m

SMILES: CCCCO [butan-1-ol] + O
interfacial tension ([1]; 278.15 K): 1.49 ± 0.05 mN/m
interfacial tension ([1]; 288.15 K): 1.63 ± 0.05 mN/m
interfacial tension ([1]; 298.15 K): 1.68 ± 0.05 mN/m
interfacial tension ([1]; 308.15 K): 1.69 ± 0.05 mN/m
interfacial tension ([1]; 318.15 K): 1.63 ± 0.05 mN/m
interfacial tension ([1]; 328.15 K): 1.54 ± 0.05 mN/m
interfacial tension ([1]; 338.15 K): 1.39 ± 0.05 mN/m
interfacial tension ([1]; 348.15 K): 1.2 ± 0.05 mN/m
interfacial tension ([1]; 358.15 K): 1.04 ± 0.05 mN/m

SMILES: COC(C)(C)C [2-methoxy-2-methylpropane] + O
interfacial tension ([1]; 278.15 K): 7.8 ± 0.08 mN/m
interfacial tension ([1]; 288.15 K): 8.83 ± 0.09 mN/m
interfacial tension ([1]; 298.15 K): 9.8 ± 0.09 mN/m
interfacial tension ([1]; 308.15 K): 10.8 ± 0.1 mN/m
interfacial tension ([1]; 318.15 K): 11.7 ± 0.1 mN/m

SMILES: CCC(C)(C)OC [2-methoxy-2-methylbutane] + O
interfacial tension ([1]; 278.15 K): 12.2 ± 0.1 mN/m
interfacial tension ([1]; 288.15 K): 13.2 ± 0.11 mN/m
interfacial tension ([1]; 298.15 K): 14.5 ± 0.11 mN/m
interfacial tension ([1]; 308.15 K): 15.5 ± 0.12 mN/m
interfacial tension ([1]; 318.15 K): 16.3 ± 0.12 mN/m
interfacial tension ([1]; 328.15 K): 17 ± 0.13 mN/m
interfacial tension ([1]; 338.15 K): 17.5 ± 0.13 mN/m

SMILES: CCCCCCCO [heptan-1-ol] + O
interfacial tension ([1]; 278.15 K): 6.61 ± 0.08 mN/m
interfacial tension ([1]; 288.15 K): 7.09 ± 0.08 mN/m
interfacial tension ([1]; 298.15 K): 7.4 ± 0.08 mN/m
interfacial tension ([1]; 308.15 K): 7.56 ± 0.08 mN/m
interfacial tension ([1]; 318.15 K): 7.73 ± 0.08 mN/m
interfacial tension ([1]; 328.15 K): 7.96 ± 0.08 mN/m
interfacial tension ([1]; 338.15 K): 7.9 ± 0.08 mN/m
interfacial tension ([1]; 348.15 K): 7.82 ± 0.08 mN/m
interfacial tension ([1]; 358.15 K): 7.74 ± 0.08 mN/m

SMILES: CCOC(C)(C)C [2-ethoxy-2-methylpropane] + O
interfacial tension ([1]; 278.15 K): 14 ± 0.11 mN/m
interfacial tension ([1]; 288.15 K): 15.5 ± 0.12 mN/m
interfacial tension ([1]; 298.15 K): 16.6 ± 0.12 mN/m
interfacial tension ([1]; 308.15 K): 17.8 ± 0.13 mN/m
interfacial tension ([1]; 318.15 K): 18.7 ± 0.13 mN/m
interfacial tension ([1]; 328.15 K): 19.3 ± 0.14 mN/m

SMILES: CCC(C)(C)OC [2-methoxy-2-methylbutane]
surface tension liquid-gas [2]: 20.3 ± 0.17 mN/m
mass density [2]: 765.91 ± 0.14 kg/m3
refractive index [3]: 1.38736 ± 0.00032

SMILES: COC(C)(C)C [2-methoxy-2-methylpropane]
surface tension liquid-gas [2]: 17.5 ± 0.16 mN/m
mass density [2]: 735.31 ± 0.14 kg/m3
refractive index [3]: 1.36764 ± 0.00031

SMILES: CCOC(C)(C)C [2-ethoxy-2-methylpropane]
surface tension liquid-gas [2]: 19.73 ± 0.17 mN/m
mass density [2]: 736.65 ± 0.14 kg/m3
refractive index [3]: 1.37468 ± 0.00031
